These results are taken from BindingDB's records for patent US12410160 (Gilead Sciences, 2025).

Assay [1] concerns the target T1, Isoform A of Ketohexokinase (Peripheral) (Human, UniProt P50053).
T1 sequence (P50053 whole entry): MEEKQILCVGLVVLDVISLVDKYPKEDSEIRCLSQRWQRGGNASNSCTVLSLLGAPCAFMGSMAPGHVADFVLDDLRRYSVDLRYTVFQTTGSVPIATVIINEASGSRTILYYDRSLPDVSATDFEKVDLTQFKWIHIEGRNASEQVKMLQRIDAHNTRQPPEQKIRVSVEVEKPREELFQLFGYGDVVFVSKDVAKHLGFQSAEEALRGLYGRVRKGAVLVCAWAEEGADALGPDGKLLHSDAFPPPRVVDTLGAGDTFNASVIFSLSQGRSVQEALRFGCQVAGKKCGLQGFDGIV
The assay can be described thus: KHK Biochemical Assay. How it is done: (§1) Compounds were tested for KHK enzyme inhibition in a high-throughput 384-well assay format using the ADP-Glo assay (Promega) in buffer consisting of 50 mM Hepes (pH 7.4), 140 mM KCl, 5 mM MgCl2 and 0.01% Triton-X. 0.2 nM. […] Compounds were serially diluted (1:3) in DMSO. […] The plates were incubated at room temperature for 4 hours before adding ADP-Glo reagent to quench the enzyme reaction, followed by incubation at room temperature for 1 hour. The ADP-Glo detection reagent was then added to the plates and luminescence was measured on the Envision plate reader after 1 hour.

Another assay addresses T2, Ketohexokinase (Human, UniProt P50053).
T2 sequence (P50053 whole entry): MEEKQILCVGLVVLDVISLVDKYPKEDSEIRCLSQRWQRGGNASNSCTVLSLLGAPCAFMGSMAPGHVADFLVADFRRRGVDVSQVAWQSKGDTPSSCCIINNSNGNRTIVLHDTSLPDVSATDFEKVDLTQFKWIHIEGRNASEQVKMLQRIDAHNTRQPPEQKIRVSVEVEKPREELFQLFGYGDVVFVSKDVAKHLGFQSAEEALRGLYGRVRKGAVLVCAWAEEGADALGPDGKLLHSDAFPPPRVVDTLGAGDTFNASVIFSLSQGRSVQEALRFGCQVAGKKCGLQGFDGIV
The assay can be described thus: KHK Biochemical Assay. On the procedure:
as §1

SMILES strings stand for the structures.

Usually IC50 stands for the concentration that inhibits the measured activity by half. Take `C[C@H]1CCN1c1nc2c(c(-c3ccnc(F)c3)n1)CCC2` [US12410160, Example 281]: the IC50 in assay [1] is 340 nM. This counts as sub-micromolar.
Compound `N#C[C@H]1CCN1c1nc(-c2ccc([C@@H](N)C(F)F)cc2)c2c(n1)C(F)(F)CC2` [US12410160, Example 660] returned an IC50 against Ketohexokinase of 5.7 nM.
As for `C[C@H]1[C@H](O)CN1c1nc(-c2ccc3c(c2)CCC32COCCC(=O)N2)c2c(n1)C(F)(F)CC2` (some centres undefined) [US12410160, Example 552], on Ketohexokinase, the IC50 turned out to be 39.2 nM.
Take `C[C@H]1CCN1c1nc2c(c(-c3ccc(C4(NS(C)(=O)=O)CC4)cc3)n1)CCC2` [US12410160, Example 306]: the IC50 in assay [1] stood at 279 nM.
In the case of `Cc1cc(-c2nc(N3CC[C@@H]3C(F)(F)F)nc3c2CCC3(F)F)ccc1C1(N)COC1` [US12410160, Example 586], the IC50 in assay [1] turned out to be 1.3 nM; against Ketohexokinase, 0.7 nM.
Turning to `C[C@H]1CCN1c1nc2c(c(-c3ccc4c(c3)CCNC4=O)n1)CCC2` [US12410160, Example 283], the IC50 in assay [1] turned out to be 28.6 nM; at Ketohexokinase it was 15.8 nM.
Turning to `COc1ccc(-c2nc(N3CC[C@@H]3C(F)(F)F)nc3c2CCC3(F)F)cc1[S@@](C)(=N)=O` [US12410160, Example 825], the results for the IC50 (in assay [1]; on Ketohexokinase) were 0.5 nM and 0.9 nM, respectively.
With `C[C@H]1[C@H](O)CN1c1nc2c(c(-c3ccc4c(N)nccc4c3)n1)CCC2` [US12410160, Example 385], the IC50 in assay [1] turned out to be 4.2 nM; against Ketohexokinase, 1.8 nM.
Compound `C[C@H]1[C@H](O)CN1c1nc(-c2ccc3c(c2)C(NS(C)(=O)=O)CC3)c2c(n1)C(F)(F)CC2` (some centres undefined) [US12410160, Example 621] returned an IC50 against Ketohexokinase of 1.3 nM.
Regarding `FC1(F)CCc2c(-c3ccc4c(c3)OC[C@@H]4NC3COC3)nc(N3CC[C@@H]3C(F)(F)F)nc21` [US12410160, Example 588], the IC50 is 9.3 nM in assay [1] and 3.7 nM against Ketohexokinase.
As to `C[C@H]1[C@H](O)CN1c1nc(-c2cn(C3CNC3)nn2)c2c(n1)C(F)(F)CC2` [US12410160, Example 647], it took 15.5 nM to reach half-maximal inhibition at Ketohexokinase (IC50).
Still for that read-out and setting: the same measure for `C[C@H]1[C@H](O)CN1c1nc(-c2ccc3c(c2)C(NS(C)(=O)=O)CO3)c2c(n1)C(F)(F)CC2` (some centres undefined) [US12410160, Example 613]: 4.3 nM.
In the case of `C[C@H]1[C@H](O)CN1c1nc(-c2ccc3c(c2)COC[C@@H]3NS(=O)(=O)CF)c2c(n1)C(F)(F)CC2` [US12410160, Example 580], the IC50 was 13 nM in assay [1] and 3.7 nM on Ketohexokinase.
Take `C[C@H]1CCN1c1nc2c(c(-c3ccc(CNS(C)(=O)=O)cc3)n1)CCC2` [US12410160, Example 361]: the IC50 in assay [1] is 68.4 nM; against Ketohexokinase it was 30.3 nM.
The compound `C[C@H]1CCN1c1nc(-c2ccc([C@H](N)C(F)F)cc2)c2c(n1)C(F)(F)CC2` [US12410160, Example 650] registered an IC50 on Ketohexokinase of 6.6 nM. This lies in the single-digit nanomolar range.
In assay [1], `NC1(c2ccc(-c3nc(N4CCC4C4CC(F)(F)C4)nc4c3CCC4(F)F)cc2)COC1` (centres undefined) [US12410160, Example 573] registered an IC50 greater than 100 nM.
For `C[C@H]1[C@H](F)CN1c1nc2c(c(-c3cccc(S(N)(=O)=O)c3)n1)CCOC2` [US12410160, Example 287], the IC50 turned out to be 696 nM in assay [1] and 1270 nM at Ketohexokinase.
On the same counts, the results for `C[C@H]1CCN1c1nc(-c2cccc(C(N)=O)c2)c2c(n1)C1CC1C2` (some centres undefined) [US12410160, Example 272] are 267 nM and 319 nM.
`C[C@H]1[C@H](O)CN1c1nc(-c2ccc3c(c2)C(=O)N(C)C3)c2c(n1)C(F)(F)CC2` [US12410160, Example 236] registered an IC50 against Ketohexokinase of 5.4 nM. This lies in the single-digit nanomolar range.
In the case of `C[C@H]1CCN1c1nc2c(c(-c3cccc(C4(N)CC4)c3)n1)CCC2` [US12410160, Example 225], the IC50 in assay [1] was 294 nM; on Ketohexokinase, 343 nM.
For the compound `C[C@H]1CCN1c1nc2c(c(-c3nc4ccccc4[nH]3)n1)CCC2` [US12410160, Example 389], the values for the IC50 (in assay [1]; on Ketohexokinase) were 296 nM and 382 nM, respectively.
On Ketohexokinase, `C[C@H]1CCN1c1nc(-c2cn(C3CNC3)nn2)c2c(n1)C(F)(F)CC2` [US12410160, Example 653] returned an IC50 of 8.2 nM.
At Ketohexokinase, `C[C@H]1CCN1c1nc(-c2ccc(-n3ccnn3)cc2)c2c(n1)C(F)(F)CC2` [US12410160, Example 655] gave an IC50 of 25.1 nM.
For the compound `CCOC(=O)NCc1ccc(-c2nc(N3CC[C@@H]3C)nc3c2CCC3)cc1` [US12410160, Example 358], the IC50 in assay [1] was found to be 435 nM; on Ketohexokinase, 293 nM.
In turn, `C[C@H]1CCN1c1nc(-c2ccc(C#N)c(S(C)(=N)=O)c2)c2c(n1)C(F)(F)CC2` (some centres undefined) [US12410160, Example 798] showed an IC50 against Ketohexokinase of 51.9 nM.
The compound `C[C@H]1CCN1c1nc(-c2cccc(-n3ccnn3)c2)c2c(n1)C(F)(F)CC2` [US12410160, Example 654] gave an IC50 against Ketohexokinase of 16.4 nM.
Take `C[C@H]1[C@H](F)CN1c1nc2c(c(-c3ccc4c(c3)C(=O)N(C)C4)n1)CCC2` [US12410160, Example 203]: the IC50 in assay [1] was 66.5 nM; against Ketohexokinase, 29.8 nM.
`C[C@H]1[C@H](O)CN1c1nc(-c2ccc3c(c2)S(C)(=O)=NC3)c2c(n1)C(F)(F)CC2` (some centres undefined) [US12410160, Example 805]: inhibition against Ketohexokinase was half-maximal at 18 nM (IC50).
On Ketohexokinase, `C[C@H]1[C@H](O)CN1c1nc(-c2ccc3c(c2)CNCC3)c2c(n1)C(F)(F)CC2` [US12410160, Example 612] displayed an IC50 of 32.6 nM.
`C[C@H]1[C@H](O)CN1c1nc(-c2ccc3c(c2)OC(C(F)F)CNC3=O)c2c(n1)C(F)(F)CC2` (some centres undefined) [US12410160, Example 597] had an IC50 at Ketohexokinase of 5.6 nM.
Regarding `COC(=O)N[C@@H]1COc2cc(-c3nc(N4C[C@@H](O)[C@@H]4C)nc4c3CCC4(F)F)ccc21` [US12410160, Example 815], at Ketohexokinase, 9.2 nM corresponded to half-maximal inhibition (IC50).
As to `C[C@H]1[C@H](O)CN1c1nc(-c2cccc(S(=N)(=O)CC#N)c2)c2c(n1)C(F)(F)CC2` (some centres undefined) [US12410160, Example 628], the IC50 came out at 10.3 nM in assay [1] and 8.8 nM against Ketohexokinase.
The compound `CCS(=O)(=O)N[C@H]1COc2cc(-c3nc(N4C[C@@H](O)[C@@H]4C)nc4c3CCC4(F)F)ccc21` [US12410160, Example 624] registered an IC50 against Ketohexokinase of 7.3 nM.
As for `C[C@H]1CCN1c1nc2c(c(-c3ccc4c(c3)C(=O)N(C)C4)n1)CCC2` [US12410160, Example 206], the figures for the IC50 (in assay [1]; against Ketohexokinase) were 24.4 nM and 16 nM, respectively.
In turn, `C[C@H]1CCN1c1nc(-c2ccc(C(N)=O)cc2)c2cn[nH]c2n1` [US12410160, Example 401] came in with a concentration for half-maximal inhibition (IC50) against Ketohexokinase of 4630 nM.
In the case of `C[C@H]1[C@H](CO)CN1c1nc2c(c(-c3ccc(C(N)=O)cc3)n1)CCC2` (racemic) [US12410160, Example 267], the IC50 at Ketohexokinase was greater than 5000 nM.
`C[C@H]1[C@H](O)CN1c1nc2c(c(-c3cccc(S(N)(=O)=O)c3)n1)CCC2` [US12410160, Example 209]: the concentration for half-maximal inhibition (IC50) was found to be 35.4 nM in assay [1] and 55.3 nM against Ketohexokinase.
As for `C[C@H]1[C@H](O)CN1c1nc(-c2cccc(-n3cnnc3)c2)c2c(n1)C(F)(F)CC2` [US12410160, Example 619], inhibition on Ketohexokinase was half-maximal at 14.3 nM (IC50).
For the compound `C[C@H]1CCN1c1nc2c(c(-c3cccc(S(N)(=O)=O)n3)n1)CCC2` [US12410160, Example 223], the results for the IC50 (in assay [1]; on Ketohexokinase) were 33.7 nM and 26.9 nM, respectively.
On to `C[C@H]1[C@H](F)CN1c1nc2c(c(-c3cccc(CN)c3)n1)CCC2` [US12410160, Example 352], for which the values for the IC50 (in assay [1]; on Ketohexokinase) were 35.6 nM and 29.8 nM, respectively.
With `C[C@H]1CCN1c1nc2c(c(-c3cn(CCO)nn3)n1)CCC2` [US12410160, Example 645], it took 158 nM to reach half-maximal inhibition against Ketohexokinase (IC50).
In the case of `C[C@H]1CCN1c1nc2c(c(-c3ccnc(S(N)(=O)=O)c3)n1)CCC2` [US12410160, Example 224], the IC50 in assay [1] was 155 nM; against Ketohexokinase, 114 nM.
At Ketohexokinase, `C[C@H]1[C@H](O)CN1c1nc(-c2ccc3c(c2)S(=O)(=O)CC3NS(C)(=O)=O)c2c(n1)C(F)(F)CC2` (some centres undefined) [US12410160, Example 665] showed an IC50 of 0.9 nM.
The same measure, in the same setting: next, `C[C@H]1[C@H](O)CN1c1nc(-c2ccc(OC(F)F)c(S(C)(=N)=O)c2)c2c(n1)C(F)(F)CC2` (some centres undefined) [US12410160, Example 532]: 2.8 nM.
Consider `CC1CCCc2nc(N3CC[C@@H]3C)nc(-c3ccccc3)c21` (some centres undefined) [US12410160, Example 340], for which the IC50 in assay [1] was greater than 50000 nM.
On Ketohexokinase, `C[C@H]1[C@H](O)CN1c1nc(-c2ccc3c(c2)CCS3(=N)=O)c2c(n1)C(F)(F)CC2` (some centres undefined) [US12410160, Example 664] showed an IC50 of 17.3 nM.
The same measure, in the same setting: next, `C[C@H]1CCN1c1nc2c(c(-c3cccc(C4CCS(=O)(=O)N4)c3)n1)CCC2` (some centres undefined) [US12410160, Example 606]: 15.3 nM; `C[C@H]1CCN1c1nc2c(c(-c3ccc4c(c3)CN(S(=O)(=O)CC#N)CC4)n1)CCC2` [US12410160, Example 604]: 239 nM; `C[C@H]1CCN1c1nc2c(c(-c3cn(C4CC4)nn3)n1)CCC2` [US12410160, Example 644]: 220 nM.
`C[C@H]1[C@H](O)CN1c1nc(-c2cccc(N=S3(=O)CCOCC3)c2)c2c(n1)C(F)(F)CC2` [US12410160, Example 673] registered an IC50 against Ketohexokinase of 9.2 nM.
